# Assay results as given in patent publication US20250347680A1, “METHODS OF OPTIMIZING KINASE INHIBITORS” (Brandeis University, priority 2024, published 2025).
# What was measured:
# [1] = tested on: p38α phosphorylation in HL60 cells; assay: Western blot of p38α phosphorylation in HL60 cells after TNFα or LPS stimulation; type: cell-based, human; details: for level of dual-phosphorylated p38α in HL60 cells: 10 μM inhibitor 30 minutes after stimulation with TNFα (40 ng/mL) or LPS; for level of dual-phosphorylated p38α in HL60 cells / single-tyrosine phosphorylated p38α / phospho-tyrosine in HL60 cells (phospho-site specific antibody) / threonine phosphorylation of p38α in HL60 cells (phospho-site specific antibody): western blot; for single-tyrosine phosphorylated p38α / phospho-tyrosine in HL60 cells (phospho-site specific antibody) / threonine phosphorylation of p38α in HL60 cells (phospho-site specific antibody): 10 μM inhibitor after TNFα stimulation; for p38α threonine phosphorylation in cells harvested immediately after addition of inhibitor: cells pretreated with TNFα
# Description: Cell culture, reagents and antibodies: HL60 cells were maintained in RPM I media supplemented with 2 mM L-glutamine and 10% fetal bovine serum (FBS) at 37° C. in a humidified atmosphere of 5% CO2. HL60-APPM1A were generated. The following antibodies were obtained from Cell Signaling Technologies (Danvers, MA); PPM1A (cat. #3549), p38 (cat. #9212) and 2p-p38 (cat. #4511). The following antibodies were obtained from A B Clonal (Woburn, MA); p38-phospho-Y182 (cat. #AP0057) and p38-phospho-T180 (cat. #AP0056). B-actin antibody (cat. #sc-47778) was obtained from Santa Cruz Biotechnology (Santa Cruz, CA). Recombinant human TNFα (cat. #300-01A) was obtained from Peprotech (Cranbury, NJ). Lipopolysaccharide (LPS) 500× solution (cat. #50-112-9325) was obtained from Invitrogen (Waltham, MA).
# Cellular assays: HL60 cells were cultured in 6 well plates and grown until a density of 2 million cells/mL. […] Cells were spun down at 500 xg for 5 minutes, carefully washed with PBS once, and lysed with 50 μL RIPA buffer supplemented with 1:1000 phosphatase inhibitor and 1:500 benzonase. Lysates were centrifuged at 10,000 rpm for 15 minutes. Supernatant was harvested and lysate was either analyzed immediately or flash-frozen and stored at −80° C.
# Western blot: Protein concentration of the lysate was determined using Bradford reagent normalized to a standard curve. 40-50 μg total protein per sample was separated on a 10% Tris-tricine polyacrylamide gel and then transferred to a polyvinylidene (PV DF) membrane using the Bio-Rad transfer system. Standard blotting protocol was followed. Primary antibodies (see antibody section) were incubated overnight at 4° C. followed by near-infrared (NIR) labeled secondary antibodies Goat anti-Rabbit IgG (H+L) Cross-Adsorbed Secondary Antibody, DyLight™ 800 (cat #. SA5-10036) or IgG (H+L) Cross-Adsorbed Goat anti-mouse, DyLight™ 680, Invitrogen™ (cat #. 35519) obtained from Invitrogen (Waltham, MA) for 1 hour at room temperature in 2.5% milk in TBST. Blots were washed and imaged on a LI-COR imaging instrument.
# MKK6 = details: previous reports; cited from earlier work
# p38α = target: T1, p38α (Homo sapiens, UniProt Q16539); assay: WIP1 phosphatase assay: dephosphorylation of 32P-labelled dual-phosphorylated p38α bound to inhibitor; type: biochemical; details: p38α 0.25 μM, WIP1 2.5 μM, inhibitor 1.25 μM
# T1 construct: 6-His (cleaved yes); made in house; host or cells: E. coli BL21 (DE3)
# Description: (§1) Following initial incubation, excess cold ATP was added for a final concentration of 12 mM and was incubated overnight. Unincorporated nucleotide was removed by buffer exchange using a Zeba™ spin column equilibrated in 50 mM K·HEPES pH7.5, 100 mM NaCl. 6His-MKK6^EE was then removed by Ni-NTA resin equilibrated in 50 mM K·HEPES pH7.5, 100 mM NaCl, 20 mM imidazole. The flow-through fraction from the Ni-NTA resin containing p38-^32P was then exchanged into 50 mM K·HEPES pH7.5, 100 mM NaCl buffer using 3 subsequent Zeba spin columns to remove all unincorporated nucleotide and free phosphate. Labeled p38-^32P was aliquoted and frozen at −80° C. for future use.
# WIP1 and PPM1A: All WIP1 phosphatase assays were performed at room temperature in 50 mM K HEPES pH7.5, 0.8 mM CHAPS, 0.05 mg/mL BSA, and 15 mM MnCl2. WIP1 concentration was 2.5 μM, PPM1A concentration was 0.5 μM and p38-^32P was 0.25 μM unless otherwise stated. […] Reactions were stopped with 0.5 MEDTA, pH8.0 and run on PEI-Cellulose TLC plates developed in 1 M LiCl2 and 0.8 M acetic acid and imaged on a Typhoon™ scanner. Phosphatase assays were performed more than three independent times as separate experiments. Data shown in figures is from a single representative experiment, and reported errors are the error from the fit unless indicated otherwise.
# p38α (T180A) = target: T2, p38α (T180A) (Homo sapiens, UniProt Q16539, T180A); assay: DUSP3 dephosphorylation of single tyrosine phosphorylated p38α (T180A); type: biochemical; details: DUSP3 15 μM, p38α T180A 0.25 μM, 5-fold excess inhibitor
# T2 construct: 6-His (cleaved yes); made in house; host or cells: E. coli BL21 (DE3)
# Description: as §1
# DUSP3: All DUSP3 phosphatase assays were performed in 50 mM K HEPES pH7.5 and 100 mM NaCl. Reactions were stopped with SDS and run on PEI-Cellulose TLC plates run through water then developed in 1 M LiCl2 and 0.8 M acetic acid and imaged on a Typhoon scanner. Phosphatase assays were performed more than three independent times as separate experiments. Data shown in figures is from a single representative experiment, and reported errors are the error from the fit unless indicated otherwise.
# +p38^T180A_32P: Reactions were run at room temperature with 15 μM DUSP3 and 0.25 μM p38^T180A_32.
# MKK6 (Homo sapiens) = tested on: T3, MKK6 (Homo sapiens); assay: Kinase assay: phosphorylation of p38α by MKK6; details: biochemical assay; 50 μM inhibitor, 25 μM p38
# T3 construct: made in house; host or cells: E. coli BL21 (DE3)
# Description: Kinase assay: All kinase assays were performed at room temperature in 20 mM K HEPES PH7.5, 0.5 mMEDTA, 20 mM MgCl2 and 2 mM DTT. […] MKK6^EE was added to 25 μM p38, 25 μM cold ATP and 1 μCi of γ-^32P ATP. 50 μM p38 inhibitors were added to a final DMSO concentration of 5%. Reactions were stopped with SDS and run on PEI-Cellulose TLC plates run through water then developed in 1 M LiCl2 and 0.8 M acetic acid and imaged on a Typhoon™ scanner.
# p38 = p38 (Homo sapiens, UniProt Q16539); details: initial biochemical kinase screening; cited from earlier work
# [2] = single turnover, relative to DMSO control
# T1 sequence (Q16539 whole entry): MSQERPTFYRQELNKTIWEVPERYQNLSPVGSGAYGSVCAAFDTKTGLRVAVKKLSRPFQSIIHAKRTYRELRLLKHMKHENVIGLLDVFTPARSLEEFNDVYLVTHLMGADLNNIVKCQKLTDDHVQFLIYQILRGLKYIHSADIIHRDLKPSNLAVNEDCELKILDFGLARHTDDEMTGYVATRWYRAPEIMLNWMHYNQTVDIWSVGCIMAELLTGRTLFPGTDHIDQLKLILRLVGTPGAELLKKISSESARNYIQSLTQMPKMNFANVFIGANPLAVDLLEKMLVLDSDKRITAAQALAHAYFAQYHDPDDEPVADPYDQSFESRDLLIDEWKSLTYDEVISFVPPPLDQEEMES
# T2 sequence (Q16539 whole entry T180A): as the sequence (Q16539 whole entry) above, with T180A counted along it
# Sequence of p38 (Q16539 whole entry): as the sequence (Q16539 whole entry) above
# T3 sequence (Q16539 whole entry): as above
Compound,level of dual-phosphorylated p38α in HL60 cells [1],single-tyrosine phosphorylated p38α / phospho-tyrosine in HL60 cells (phospho-site specific antibody) [1],threonine phosphorylation of p38α in HL60 cells (phospho-site specific antibody) [1],p38α threonine phosphorylation in cells harvested immediately after addition of inhibitor [1],also measured
Cc1ccc(-n2nc(C(C)(C)C)cc2NC(=O)NCc2cc(F)ccc2Oc2ccc3c(cnn3CCO)c2)cc1 [pexmetinib],disappeared,increase,disappearance,completely disappeared,–
Cc1ccc(-n2nc(C(C)(C)C)cc2NC(=O)Nc2ccc(OCCN3CCOCC3)c3ccccc23)cc1 [BIRB 796],disappeared,increase,disappearance,completely disappeared,MKK6 dual phosphorylation measured by ELISA (MKK6): block
CCc1nc(-c2cccc(C)c2)c(-c2ccnc(NC(=O)c3ccccc3)c2)s1 [TAK-715],caused disappearance,did not accumulate,–,–,–
Cc1cn(-c2cc(NC(=O)c3ccc(C)c(Nc4nccc(-c5cccnc5)n4)c3)cc(C(F)(F)F)c2)cn1 [nilotinib],disappeared,increase,disappearance,completely disappeared,increase of the rate of threonine dephosphorylation of p38α by WIP1 (p38α; [2]): four-fold; effect on rate of DUSP3 dephosphorylation of Y182 of p38α (T180A) (p38α (T180A)): no effect; threonine phosphorylation of p38α by MKK6 (MKK6 (Homo sapiens)): did not impact; binding of p38 compared to primary target ABL (p38): weak off-target binder
O=c1ncn2nc(Sc3ccc(F)cc3F)ccc2c1-c1c(Cl)cccc1Cl [VX-745],caused disappearance,did not accumulate,–,–,effect on WIP1 threonine dephosphorylation of p38α (in words) (p38α): did not affect
CC(C)(C)Cn1c(N)nc2ccc(-c3[nH]c(C(C)(C)C)nc3-c3ccc(F)cc3)nc21 [LY2228820],increased,–,–,–,decrease of the rate of threonine dephosphorylation of p38α by WIP1 (p38α; [2]): 5 fold
Cc1c(F)cc(C(=O)NC2CC2)cc1-c1ccc(C(=O)NCC(C)(C)C)cn1 [losmapimod],caused disappearance,did not accumulate,–,–,–
NC(=O)c1ccc2[nH]ccc2c1 [SD-169],–,–,–,–,effect on WIP1 threonine dephosphorylation of p38α (in words) (p38α): no change on phosphatase activity
Oc1ccc(-c2nc(-c3ccncc3)c(-c3ccc(F)cc3)[nH]2)cc1 [SB202190],increased,–,increased,–,decrease of the rate of threonine dephosphorylation of p38α by WIP1 (p38α; [2]): 5 fold; effect on rate of DUSP3 dephosphorylation of Y182 of p38α (T180A) (p38α (T180A)): no effect
